Data on 17 compounds can be found in ChEMBL document CHEMBL1140558, “An atom efficient, solvent-free, green synthesis and antimycobacterial evaluation of 2-amino-6-methyl-4-aryl-8-[(E)-arylmethylidene]-5,6,7,8-tetrahydro-4H-pyrano[3,2-c]pyridine-3-carbonitriles” (2007).

Structures are written as SMILES. ≈ marks a conversion by molar mass, not a printed value.

In assay [1] the test system is Mycolicibacterium smegmatis. As to the kind of experiment: Antimycobacterial activity against Mycobacterium smegmatis ATCC 14468 by agar dilution method. The assay is classed as functional. (In agar dilution the substance is mixed into plates at graded concentrations.)
Assay [2] concerns Mycobacterium tuberculosis. Description: Antimycobacterial activity against Mycobacterium tuberculosis H37Rv by agar dilution method. It is filed as functional.

As usually defined, the MIC is the least concentration at which growth counts as inhibited.

Turning to `CN1CC2=C(OC(N)=C(C#N)C2c2cccs2)/C(=C/c2cccs2)C1` (centres undefined), the MIC in assay [1] came out at 34.1 µM (≈ 12.5 µg/mL); in assay [2], 68.1 µM (≈ 25 µg/mL).
In the same order, the values of `COc1ccc(/C=C2\CN(C)CC3=C2OC(N)=C(C#N)C3c2ccc(OC)cc2)cc1` (centres undefined) are 60.2 µM (≈ 25 µg/mL) and 30.1 µM (≈ 12.5 µg/mL).
For `Cc1ccccc1/C=C1\CN(C)CC2=C1OC(N)=C(C#N)C2c1ccccc1C` (centres undefined) the same measures were 32.6 µM (≈ 12.5 µg/mL) and 16.3 µM (≈ 6.26 µg/mL).
In the same order, the values of `Cc1ccc(/C=C2\CN(C)CC3=C2OC(N)=C(C#N)C3c2ccc(C)cc2)cc1` (centres undefined) are 65.3 µM (≈ 25 µg/mL) and 16.3 µM (≈ 6.26 µg/mL).
Take `CN1CC2=C(OC(N)=C(C#N)C2c2cccc(F)c2)/C(=C/c2cccc(F)c2)C1` (centres undefined): the MIC in assay [1] came out at 32 µM (≈ 12.5 µg/mL); in assay [2], 0.99 µM (≈ 0.388 µg/mL).
Turning to `CN1CC2=C(OC(N)=C(C#N)C2c2ccc(N(C)C)cc2)/C(=C/c2ccc(N(C)C)cc2)C1` (centres undefined), the results for the MIC in assay [1] and in assay [2] were 28.3 µM (≈ 12.5 µg/mL) and 0.43 µM (≈ 0.19 µg/mL), respectively.
`COc1c(N2CCNC(C)C2)c(F)cc2c(=O)c(C(=O)O)cn(C3CC3)c12` (centres undefined) [GATIFLOXACIN]: the MIC in assay [1] and in assay [2] was 2.08 µM (≈ 0.781 µg/mL) in each case.
For `CN1CC2=C(OC(N)=C(C#N)C2c2ccccc2)/C(=C/c2ccccc2)C1` (centres undefined), the MIC in assay [1] was 70.4 µM (≈ 25 µg/mL); in assay [2] it was 35.2 µM (≈ 12.5 µg/mL).
With `CN1CC2=C(OC(N)=C(C#N)C2c2ccc(Cl)cc2Cl)/C(=C/c2ccc(Cl)cc2Cl)C1` (centres undefined), the results for the MIC in assay [1] and in assay [2] were 50.7 µM (≈ 25 µg/mL) and 25.4 µM (≈ 12.5 µg/mL), respectively.
As to `CN1CC2=C(OC(N)=C(C#N)C2c2ccc(Cl)cc2)/C(=C/c2ccc(Cl)cc2)C1` (centres undefined), the MIC in assay [1] worked out at 3.68 µM (≈ 1.56 µg/mL); in assay [2] it was 0.92 µM (≈ 0.39 µg/mL).
For `CN1CC2=C(OC(N)=C(C#N)C2c2ccco2)/C(=C/c2ccco2)C1` (centres undefined) the same measures were 37.3 µM (≈ 12.5 µg/mL) and 37.3 µM (≈ 12.5 µg/mL).
For `CN1CC2=C(OC(N)=C(C#N)C2/C=C/c2ccccc2)/C(=C/C=C/c2ccccc2)C1` (centres undefined) the same measures were 30.7 µM (≈ 12.5 µg/mL) and 30.7 µM (≈ 12.5 µg/mL).
With `CN1CC2=C(OC(N)=C(C#N)C2c2cccc([N+](=O)[O-])c2)/C(=C/c2cccc([N+](=O)[O-])c2)C1` (centres undefined), the figures for the MIC in assay [1] and in assay [2] were 56.2 µM (≈ 25 µg/mL) and 1.75 µM (≈ 0.78 µg/mL), respectively.
In the same order, the values of `NNC(=O)c1ccncc1` [ISONIAZID] are 45.6 µM (≈ 6.25 µg/mL) and 0.36 µM (≈ 0.0494 µg/mL).
For `CN1CC2=C(OC(N)=C(C#N)C2c2ccccc2Cl)/C(=C/c2ccccc2Cl)C1` (centres undefined), the MIC in assay [1] worked out at 59 µM (≈ 25 µg/mL); in assay [2], 1.84 µM (≈ 0.781 µg/mL).
Consider `CN1CC2=C(OC(N)=C(C#N)C2c2ccc(F)cc2)/C(=C/c2ccc(F)cc2)C1` (centres undefined), for which the MIC worked out at 32 µM (≈ 12.5 µg/mL) in assay [1] and 0.97 µM (≈ 0.38 µg/mL) in assay [2].
For `COc1ccccc1/C=C1\CN(C)CC2=C1OC(N)=C(C#N)C2c1ccccc1OC` (centres undefined), the MIC in assay [1] was 30.1 µM (≈ 12.5 µg/mL); in assay [2], 15.1 µM (≈ 6.26 µg/mL).
